The text below walks through data of patent publication US8598173B2, “1-[(6,7-substituted alkoxyquinoxalinyl)aminocarbonyl]-4-(hetero)arylpiperazine derivatives for treating tumors” (Korea Research Institute of Chemical Technology, priority 2004, dated 2013).

By IC50 is commonly meant the midpoint of a concentration-inhibition curve.

Type in all cases: cell-based, human
What all share (conditions): SRB method, 96 hours incubation
In general terms: The SRB assay estimates cell density from bound dye.

One assay has as its system UMRC2 (kidney). The experiment in a line: Cell growth inhibition assay (SRB), UMRC2. Here is the method:
(§1) OVCAR-3, MCF-7, PC3, HepG2, A549, HT-29 and MKN-45 were grown in RPMI1640 medium (Invitrogen, Carlsbad, Calif.) supplemented with 10% fetal bovine serum (‘FBS’), 1 mM sodium pyruvate, 10 mM HEPES and 100 U/ml penicillin and […] streptomycin (‘P/S’). MDA-MB-231, HCT116, UMRC2, Caki-1, PANC-1 and HEK293 cells were maintained in Dulbecco's modified Eagle's medium (‘DMEM’, Invitrogen) supplemented with 10% FBS, P/S, 10 mM HEPES and 2 mM L-glutamine. HUVEC was maintained in M199 supplemented with basic fibroblast growth factor (‘bFGF’) […] and FBS 20%. All cells were incubated at 37° C. under humidified 5% CO2.
(§2) The growth inhibition of the substituted quinoxalin-piperazine compounds against a variety of human tumor cells was evaluated. The relative importance of particular substituent groups on the compounds was also studied. The substituted piperazine derivative compounds, prepared as described above, were tested, along with DMSO as a control.
(§3) The growth inhibition assay of various compounds against human tumor cell lines was performed using the Sulforhodamine B (‘SRB’) method (Skehan et al., J. National Cancer Institute, 1990, 82, 1107-1112). […] Triplicate wells were used for each treatment. The cells were incubated with the various compounds for 96 hours at 37° C. in a humidified 5% CO2 atmosphere. After 96-hour incubation, cells were fixed with 10% trichloroacetic acid (‘TCA’), incubated for 1 hour at 4° C., and washed 3 times with tap water. Subsequently cells were stained with 0.4% sulforhodamine B in 1% acetic acid for 30 minutes, washed 4 times with 1% acetic acid, and air-dried again. After 5 minutes agitation in 10 mM Tris solution, the absorbance of each well was measured at 530 nm using Benchmark Plus Microplate reader (Bio-Rad Laboratories, Hercules, Calif.).
(§4) To translate the OD530 values into the number of live cells in each well, the OD530 values were compared to those on standard OD530-versus-cell number curves generated for each cell line. The percent survival was calculated using the formula: % Survival=live cell number[test]/live cell number[control]×100
(§5) The IC50 values were calculated by non-linear regression analysis.

In a further assay the test system is MDA-MB-231 (breast). The experiment in a line: Cell growth inhibition assay (SRB), MDA-MB-231. The procedure:
as §1, §2, §3, §4, §5

The next assay relates to PANC-1 (pancreas). The experiment in a line: Cell growth inhibition assay (SRB), PANC-1. The procedure:
as §1, §2, §3, §4, §5

Where [1] appears, read: Homo sapiens, UMRC2 (kidney), read-out: IC50, UMRC2.
Where [2] appears, read: Homo sapiens, MDA-MB-231 (breast), read-out: IC50, MDA-MB-231.
The mark [3] stands for this setting: Homo sapiens, PANC-1 (pancreas), read-out: IC50, PANC-1.
The mark [4] stands for this setting: UMRC2, read-out: Inhibition of cell growth (IC50, μM) by quinoxaline-piperazine compounds against human cancer cell lines: UMRC2.
[5] abbreviates: MDA-MB-231, read-out: Inhibition of cell growth (IC50, μM) by quinoxaline-piperazine compounds against human cancer cell lines: MDA-MB-231.
The mark [6] stands for this setting: PANC-1, read-out: Inhibition of cell growth (IC50, μM) by quinoxaline-piperazine compounds against human cancer cell lines: PANC-1.
The mark [7] stands for this setting: Homo sapiens, UMRC2, read-out: Inhibition of cell growth (IC50, μM) by quinoxaline-piperazine compounds against human cancer cell lines: UMRC2.
Where [8] appears, read: Homo sapiens, MDA-MB-231, read-out: Inhibition of cell growth (IC50, μM) by quinoxaline-piperazine compounds against human cancer cell lines: MDA-MB-231.
[9] abbreviates: Homo sapiens, PANC-1, read-out: Inhibition of cell growth (IC50, μM) by quinoxaline-piperazine compounds against human cancer cell lines: PANC-1.
The mark [10] stands for this setting: UMRC2 (kidney), read-out: IC50, UMRC2.
[11] abbreviates: MDA-MB-231 (breast), read-out: IC50, MDA-MB-231.
The mark [12] stands for this setting: PANC-1 (pancreas), read-out: IC50, PANC-1.

Read-outs that look alike come from different tables or passages of the source.

As to `COc1cc(OC)cc(N2CCN(C(=O)Nc3nc4cc(OC)c(OC)cc4nc3OC)CC2)c1` [Compound 191, 1-[(2,6,7-Trimethoxyquinoxalin-3-yl)aminocarbonyl]-4-(3,5-dimethoxyphenyl)piperazine], the figures for the IC50 in the assay on UMRC2 (kidney) (setting [1]), with MDA-MB-231 (breast) (setting [2]) and in the assay on PANC-1 (pancreas) (setting [3]) were 0.49 µM, 0.69 µM and 0.9 µM, respectively.

On to `COc1cc2nc(NC(=O)N3CCN(c4cccc(Br)c4)CC3)c(OC)nc2cc1OC` [Compound 196, 1-[(2,6,7-Trimethoxyquinoxalin-3-yl)aminocarbonyl]-4-(3-bromophenyl)piperazine], for which the IC50 in the assay with UMRC2 (kidney) (setting [1]) was 0.65 µM; in the assay on MDA-MB-231 (breast) (setting [2]), 0.72 µM; in the assay with PANC-1 (pancreas) (setting [3]), 1.05 µM.

Consider `COc1nc2ccc(F)cc2nc1NC(=O)N1CCN(c2cccc(C(F)(F)F)c2)CC1` [Compound 11, 1-[(6-Fluoro-2-methoxyquinoxalin-3-yl)aminocarbonyl]-4-(3-trifluorotolyl)piperazine], for which the values for the IC50 in the assay with UMRC2 (kidney) (setting [4]), in the assay with MDA-MB-231 (breast) (setting [5]) and in the assay on PANC-1 (pancreas) (setting [6]) were 0.39 µM, 0.25 µM and 1.06 µM, respectively.

`COc1nc2ccc(C)cc2nc1NC(=O)N1CCN(c2cccc(C)c2)CC1` [Compound 50, 1-[(2-Methoxy-6-methylquinoxalin-3-yl)aminocarbonyl]-4-(3-methylphenyl)piperazine]: the values for the IC50 in the assay on UMRC2 (kidney) (setting [7]), with MDA-MB-231 (breast) (setting [8]) and with PANC-1 (pancreas) (setting [9]) were 0.4 µM, 0.22 µM and 1.04 µM, respectively.

As for `COc1cccc(N2CCN(C(=O)Nc3nc4cc(OC)ccc4nc3OC)CC2)c1` [Compound 66, 1-[(2,6-Dimethoxyquinoxalin-3-yl)aminocarbonyl]-4-(3-methoxyphenyl)piperazine], the IC50 in the assay on UMRC2 (kidney) (setting [7]), in the assay with MDA-MB-231 (breast) (setting [8]) and in the assay on PANC-1 (pancreas) (setting [9]) was over 1 µM in each case.

As for `COc1nc2cc(C)ccc2nc1NC(=O)N1CCN(c2cccc(C)c2)CC1` [Compound 134, 1-[(3-Methoxy-6-methylquinoxalin-2-yl)aminocarbonyl]-4-(3-methylphenyl)piperazine], the IC50 in the assay with UMRC2 (kidney) (setting [1]) and in the assay on MDA-MB-231 (breast) (setting [2]) was 0.26 µM each time.

For `COc1cccc(N2CCN(C(=O)Nc3nc4cc(Cl)ccc4nc3OC)CC2)c1` [Compound 24, 1-[(6-Chloro-2-methoxyquinoxalin-3-yl)aminocarbonyl]-4-(3-methoxyphenyl)piperazine], the IC50 amounted to 0.68 µM in the assay on UMRC2 (kidney) (setting [7]), 0.41 µM in the assay with MDA-MB-231 (breast) (setting [8]) and 1.66 µM in the assay on PANC-1 (pancreas) (setting [9]).

In the case of `COc1ccc2nc(OC)c(NC(=O)N3CCN(c4cccc(C)c4)CC3)nc2c1` [Compound 71, 1-[(2,6-Dimethoxyquinoxalin-3-yl)aminocarbonyl]-4-(3-methylphenyl)piperazine], the results for the IC50 in the assay with UMRC2 (kidney) (setting [7]), in the assay with MDA-MB-231 (breast) (setting [8]) and with PANC-1 (pancreas) (setting [9]) were 0.63 µM, 0.4 µM and 1.43 µM, respectively.

`COc1cc(OC)cc(N2CCN(C(=O)Nc3nc4cc(Cl)c(Cl)cc4nc3OC)CC2)c1` [Compound 177, 1-[(6,7-Dichloro-2-methoxyquinoxalin-3-yl)aminocarbonyl]-4-(3,5-dimethoxyphenyl)piperazine]: the IC50 is 0.58 µM with UMRC2 (kidney) (setting [1]), 1.45 µM in the assay on MDA-MB-231 (breast) (setting [2]) and 1.16 µM in the assay with PANC-1 (pancreas) (setting [3]).

In the case of `COc1nc2cc(Cl)ccc2nc1NC(=O)N1CCN(c2cccc(C)c2)CC1` [Compound 113, 1-[(6-Chloro-3-methoxyquinoxalin-2-yl)aminocarbonyl]-4-(3-methylphenyl)piperazine], the IC50 in the assay on UMRC2 (kidney) (setting [1]) was 0.4 µM; in the assay with MDA-MB-231 (breast) (setting [2]), 0.3 µM; in the assay with PANC-1 (pancreas) (setting [3]), 0.61 µM.

For the molecule `COc1cccc(N2CCN(C(=O)Nc3nc4ccc(C)cc4nc3OC)CC2)c1` [Compound 129, 1-[(3-Methoxy-6-methylquinoxalin-2-yl)aminocarbonyl]-4-(3-methoxyphenyl)piperazine], the IC50 in the assay on UMRC2 (kidney) (setting [1]), in the assay on MDA-MB-231 (breast) (setting [2]) and in the assay with PANC-1 (pancreas) (setting [3]) was over 1 µM each time.

As to `COc1nc2ccc(Cl)cc2nc1NC(=O)N1CCN(c2cccc(C(F)(F)F)c2)CC1` [Compound 32, 1-[(6-Chloro-2-methoxyquinoxalin-3-yl)aminocarbonyl]-4-(3-trifluorotolyl)piperazine], the IC50 with UMRC2 (kidney) (setting [4]) was 1 µM; with MDA-MB-231 (breast) (setting [5]) it was 1 µM; in the assay on PANC-1 (pancreas) (setting [6]), over 1 µM.

As to `COc1nc2cc(F)ccc2nc1NC(=O)N1CCN(c2cccc(C(F)(F)F)c2)CC1` [Compound 95, 1-[(6-Fluoro-3-methoxyquinoxalin-2-yl)aminocarbonyl]-4-(3-trifluorotoly)piperazine], the IC50 with UMRC2 (kidney) (setting [10]), in the assay with MDA-MB-231 (breast) (setting [11]) and in the assay on PANC-1 (pancreas) (setting [12]) was over 1 µM throughout.

On to `COc1ccc2nc(NC(=O)N3CCN(c4cccc(Cl)c4)CC3)c(OC)nc2c1` [Compound 162, 1-[(3,6-Dimethoxyquinoxalin-2-yl)aminocarbonyl]-4-(3-chlorophenyl)piperazine], for which the IC50 in the assay on UMRC2 (kidney) (setting [1]) is 0.29 µM; with MDA-MB-231 (breast) (setting [2]), 0.23 µM; in the assay on PANC-1 (pancreas) (setting [3]) it was 0.46 µM.

Take `COc1nc2cc(F)ccc2nc1NC(=O)N1CCN(c2cccc(C)c2)CC1` [Compound 92, 1-[(6-Fluoro-3-methoxyquinoxalin-2-yl)aminocarbonyl]-4-(3-methylphenyl)piperazine]: the IC50 in the assay on UMRC2 (kidney) (setting [7]) was determined as 0.37 µM; in the assay with MDA-MB-231 (breast) (setting [8]), 0.21 µM; with PANC-1 (pancreas) (setting [9]) it was 0.95 µM.

As to `COc1nc2ccc(Cl)cc2nc1NC(=O)N1CCN(c2cccc(Cl)c2)CC1` [Compound 36, 1-[(6-Chloro-2-methoxyquinoxalin-3-yl)aminocarbonyl]-4-(3-chlorophenyl)piperazine], the IC50 in the assay with UMRC2 (kidney) (setting [7]) came to 0.31 µM; with MDA-MB-231 (breast) (setting [8]), 0.17 µM; in the assay with PANC-1 (pancreas) (setting [9]), 0.93 µM.

As to `COc1cccc(N2CCN(C(=O)Nc3nc4ccc(F)cc4nc3OC)CC2)c1` [Compound 87, 1-[(6-Fluoro-3-methoxyquinoxalin-2-yl)aminocarbonyl]-4-(3-methoxyphenyl)piperazine], the IC50 with UMRC2 (kidney) (setting [7]), with MDA-MB-231 (breast) (setting [8]) and in the assay on PANC-1 (pancreas) (setting [9]) was over 1 µM each time.

For `COc1ccc2nc(NC(=O)N3CCN(c4cccc(C(F)(F)F)c4)CC3)c(OC)nc2c1` [Compound 158, 1-[(3,6-Dimethoxyquinoxalin-2-yl)aminocarbonyl]-4-(3-trifluorotoly)piperazine], the IC50 in the assay on UMRC2 (kidney) (setting [10]), in the assay with MDA-MB-231 (breast) (setting [11]) and in the assay on PANC-1 (pancreas) (setting [12]) was over 1 µM each time.

On to `COc1nc2ccc(C)cc2nc1NC(=O)N1CCN(c2cccc(C(F)(F)F)c2)CC1` [Compound 53, 1-[(2-Methoxy-6-methylquinoxalin-3-yl)aminocarbonyl]-4-(3-trifluorotolyl)piperazine], for which the IC50 in the assay with UMRC2 (kidney) (setting [4]), in the assay with MDA-MB-231 (breast) (setting [5]) and with PANC-1 (pancreas) (setting [6]) was over 1 µM in each case.

For the molecule `COc1cc2nc(NC(=O)N3CCN(c4cccc(C(F)(F)F)c4)CC3)c(OC)nc2cc1OC` [Compound 194, 1-[(2,6,7-Trimethoxyquinoxalin-3-yl)aminocarbonyl]-4-(3-trifluorotolyl)piperazine], the results for the IC50 in the assay on UMRC2 (kidney) (setting [10]), in the assay on MDA-MB-231 (breast) (setting [11]) and in the assay with PANC-1 (pancreas) (setting [12]) were 0.79 µM, 0.75 µM and 1.4 µM, respectively.

Consider `COc1nc2cc(F)c(F)cc2nc1NC(=O)N1CCN(c2cc(C)cc(C)c2)CC1` [Compound 172, 1-[(6,7-Difluoro-2-methoxyquinoxalin-3-yl)aminocarbonyl]-4-(3,5-dimethylphenyl)piperazine], for which the IC50 with UMRC2 (kidney) (setting [1]) was 0.56 µM; with MDA-MB-231 (breast) (setting [2]), 0.7 µM; in the assay with PANC-1 (pancreas) (setting [3]) it was 1 µM.

For the molecule `COc1nc2cc(C)ccc2nc1NC(=O)N1CCN(c2cccc(Cl)c2)CC1` [Compound 141, 1-[(3-Methoxy-6-methylquinoxalin-2-yl)aminocarbonyl]-4-(3-chlorophenyl)piperazine], the IC50 in the assay with UMRC2 (kidney) (setting [1]) and in the assay on MDA-MB-231 (breast) (setting [2]) was 0.25 µM in each case.
